Patent publication US6479488B1, “Tetrahydroquinoline derivatives as EAA antagonists” (Glaxo Wellcome SpA, priority 1996, dated 2002)
pKi: −log10 of the molar value.

Assays:
[1] = biological target: T1, strychnine insensitive glycine binding site located on the NMDA receptor complex (Rattus norvegicus, UniProt P35439); assay: Affinity for strychnine insensitive glycine binding site (procedure of Kishimoto et al.)
T1 construct: from tissue
Protocol: The potent and selective action of the compound of the invention at the strychnine-insensitive glycine binding site present on the NMDA receptor complex may be readily determined using conventional test procedures. Thus the ability to bind at the strychnine insensitive glycine binding site was determined using the procedure of Kishimoto H et al. J Neurochem 1981, 37 1015-1024. The selectivity of the action of compounds of the invention for the strychnine insensitive glycine site was confirmed in studies at other ionotropic known excitatory amino acid receptors.
The affinity of a compound of the invention for strychnine insensitive glycine binding site located on the NMDA receptor complex was determined using the procedure of Kishimoto H. et al J. Neurochem 1981, 37, 1015-1024.

[2] = test system: generalized seizures induced by an intracerebroventicular injection of NMDA; assay: Inhibition of NMDA induced convulsions in the mouse (procedure of Chiamulera et al.); type: in vivo; details: mice, iv, 0.1 mg/kg dose, NMDA icv induced generalized seizures
Protocol: The ability of compounds of the invention to inhibit NMDA induced convulsions in the mouse was determined using the procedure of Chiamulera C et al. Psychopharmacology 1990, 102, 551-552. In this test the ability of the compound when administered iv to inhibit the generalized seizures induced by an intracerebroventicular injection of NMDA in mice was examined at 0.1 mg/kgdose.
The results as percent (%) of inhibition at 0.1 mg/kg dose for representative compounds are given below: […]

| Structure (SMILES) | pKi [1] | % of inhibition [2] [%] |
| --- | --- | --- |
| CC(C)C(=O)NCCOc1ccc(NC(=O)C=C2CC(C(=O)O)Nc3cc(Cl)cc(Cl)c32)cc1 (racemic) [Example 6, (+/−)(E)-5,7-Dichloro-4-[4-(2-isobutyrylamino-ethoxy)-phenylcarbamoylmethylene]-1,2,3,4-tetrahydro-guinoline-2-carboxylic Acid] | 7.80 | 40 |
| COCC(=O)Nc1ccc(NC(=O)C=C2CC(C(=O)O)Nc3cc(Cl)cc(Cl)c32)cc1 (racemic) [Example 7, (+/−)(E)-5,7-Dichloro-4-[4-(2-methoxy-acetylamino)-phenylcarbamoylmethylene-1,2,3,4-tetrahydro-quinoline-2-carboxylic Acid] | 8.20 | 40 |
| CC(C)C(=O)NCC(=O)Nc1ccc(NC(=O)/C=C2\CC(C(=O)[O-])Nc3cc(Cl)cc(Cl)c32)cc1.[Na+] (racemic) [Example 9, (+/−)(E)-5,7-Dichloro-4-(4-isobutyrylaminomethylcarbonylamino-phenylcarbamoylmethylene)-1,2,3,4-tetrahydro-quinoline-2-carboxylic Acid Sodium Salt] | 8.10 | 40 |

More lines, in order of rising pKi [1], values ahead:

| pKi [1] | Structure (SMILES) | % of inhibition [2] [%] |
| --- | --- | --- |
| 7.20 | O=C(C=C1CC(C(=O)O)Nc2cc(Cl)cc(Cl)c21)Nc1ccc(OCCN2CCOCC2)cc1 (racemic) [Example 4, (+/−)(E)-5,7-Dichloro-4-[4-(2-morpholin-4-yl-ethoxy)-phenylcarbamoylmethylene]-1,2,3,4-tetrahydro-guinoline-2-carboxylic Acid] |  |
| 8.10 | NC(=O)C=Cc1ccc(NC(=O)C=C2CC(C(=O)O)Nc3cc(Cl)cc(Cl)c32)cc1 (racemic) [Example 3, (+/−(E,E)-4-[4-(2-Carbamoyl-vinyl)-phenylcarbamoylmethylene]-5,7-dichloro-1,2,3,4-tetrahydro-quinoline-2-carboxylic Acid] | 40 |
| 8.10 | N#CCc1ccc(NC(=O)/C=C2\CC(C(=O)O)Nc3cc(Cl)cc(Cl)c32)cc1 (racemic) [Example 5, (+/−)(E)-5,7-Dichloro-4-(4-cyanomethyl-phenylcarbamoylmethylene)-1,2,3,4-tetrahydro-quinoline-2-carboxylic Acid] |  |
